Laboratory results published in US4992449A, “7-(substituted)cycloalkylamino-1 -(substituted)-6-fluoro-1,4-dihydro-4-oxo-3-quinolinecarboxylic acids” (American Cyanamid Company, priority 1990, dated 1991).
Values after ≈ are worked out from the molar mass of the structure shown. Read-outs that look alike come from different tables or passages of the source.

Experiments:
Assay in all cases: In vitro antibacterial MIC, agar plate dilution
Type in all cases: cell-based
[1] = tested on: Pseudomonas aeruginosa VGH 84-4; conditions: Table II
Procedure: (§1) The in vitro antimicrobial spectrum of the compounds of this invention were determined by the agar plate dilution method with Mueller-Hinton agar and an inoculum of each test organism of approximately 10^4 colony forming units delivered by the Steers replicating device. The minimal inhibitory concentration (MIC) in mcg/ml is defined as the lowest concentration of test compound that inhibited visible growth after 18 hours incubation at 35° C. Results are given in Table I, with the test compounds identified by the number of their hereinafter described examples

[2] = tested on: Serratia marcescens K 84-18; conditions: Table II
Procedure: as §1

Excherichia coli LL 311 = conditions: Table II
Procedure: as §1

[3] = tested on: Proteus rettgeri CMC 84-41; conditions: Table II
Procedure: as §1

[4] = tested on: Escherichia coli ATCC 25922; conditions: Table II, Excherichia coli ATCC 25922
Procedure: as §1

[5] = tested on: Staphylococcus aureus VGH 84-45; conditions: Table II
Procedure: as §1

[6] = tested on: Streptococcus faecalis UCI 85-19; conditions: Table II
Procedure: as §1

[7] = tested on: Pseudomonas aeruginosa LL-1244; conditions: Table II
Procedure: as §1

[8] = tested on: Staphylococcus aureus ATCC 29213; conditions: Table II
Procedure: as §1

[9] = tested on: Streptococcus faecalis VGH 84-65; conditions: Table II
Procedure: as §1

[10] = tested on: Excherichia coli CMC 84-11; conditions: Table II
Procedure: as §1

[11] = tested on: Morganella morganii CMC 84-37; conditions: Table II
Procedure: as §1

[12] = tested on: Serratia marcescens VGH 84-30; conditions: Table II
Procedure: as §1

[13] = tested on: Staphylococcus aureus Smith 1; conditions: Table II
Procedure: as §1

[14] = Pseudomonas aeruginosa, VGH844, 18 h, read-out: MIC
[15] = Providencia rettgeri, CMC8441, 18 h, read-out: MIC
[16] = Escherichia coli, ATCC25922, 18 h, read-out: MIC
[17] = Enterococcus faecalis, UCI8519, 18 h, read-out: MIC
[18] = Pseudomonas aeruginosa, LL1244, 18 h, read-out: MIC
[19] = Staphylococcus aureus, ATCC29213, 18 h, read-out: MIC
[20] = Enterococcus faecalis, VGH8465, 18 h, read-out: MIC
[21] = Staphylococcus aureus, SMITH1, 18 h, read-out: MIC

SMILES | MIC [1, 14] | MIC ([2]; K8418, 18 h, read-out: MIC) | MIC (Excherichia coli LL 311; 18 h, read-out: MIC) | MIC [3, 15] | MIC [4, 16] | MIC ([5]; VGH8445, 18 h, read-out: MIC) | MIC [6, 17] | MIC [7, 18] | MIC [8, 19] | MIC [9, 20] | MIC ([10]; 18 h, read-out: MIC) | MIC ([11]; CMC8437, 18 h, read-out: MIC) | MIC ([12]; VGH8430, 18 h, read-out: MIC) | MIC [13, 21] | MIC [13] | further results
CCn1cc(C(=O)O)c(=O)c2cc(F)c(N[C@@H]3CCCC[C@H]3N)cc21 (racemic) [Example 7, Trans-(+/-)-7-[(2-Aminocyclohexyl)amino]1-ethyl-6-fluoro-1,4-dihydro-4-oxo-3-quinolinecarboxylic acid] | 128 µg/mL (≈ 368 µM) | 64 µg/mL (≈ 184 µM) | 32 µg/mL (≈ 92.1 µM) | 128 µg/mL (≈ 368 µM) | 32 µg/mL (≈ 92.1 µM) | 128 µg/mL (≈ 368 µM) | 128 µg/mL (≈ 368 µM) | 128 µg/mL (≈ 368 µM) | > 128 µg/mL | 64 µg/mL (≈ 184 µM) | 16 µg/mL (≈ 46.1 µM) | 32 µg/mL (≈ 92.1 µM) | 128 µg/mL (≈ 368 µM) | 16 µg/mL (≈ 46.1 µM) |  | 
CCn1cc(C(=O)O)c(=O)c2cc(F)c(N[C@@H]3CCCC[C@@H]3O)cc21 (relative stereo) [Example 5, Cis-7-[(2-Hydroxycyclohecxyl)amino]-1-ethyl-6-fluoro-1,4-dihydro-4-oxo-3-quinolinecarboxylic acid] | > 128 µg/mL | 64 µg/mL (≈ 184 µM) | 16 µg/mL (≈ 45.9 µM) | 64 µg/mL (≈ 184 µM) | 32 µg/mL (≈ 91.9 µM) | 32 µg/mL (≈ 91.9 µM) | > 128 µg/mL | > 128 µg/mL | 64 µg/mL (≈ 184 µM) | > 128 µg/mL | 32 µg/mL (≈ 91.9 µM) | 32 µg/mL (≈ 91.9 µM) | > 128 µg/mL | 8 µg/mL (≈ 23 µM) |  | 
CCn1cc(C(=O)O)c(=O)c2cc(F)c(N[C@@H]3CCCC[C@@H]3N)cc21 (relative stereo) [Example 6, Cis-7-[(2-Aminocyclohexyl)amino]-1-ethyl-6-fluoro-1,4-dihydro-4-oxo-3-quinolinecarboxylic acid] | 8 µg/mL (≈ 23 µM) | 1 µg/mL (≈ 2.88 µM) | 0.5 µg/mL (≈ 1.44 µM) | 1 µg/mL (≈ 2.88 µM) | 0.5 µg/mL (≈ 1.44 µM) | 2 µg/mL (≈ 5.76 µM) | 8 µg/mL (≈ 23 µM) | 8 µg/mL (≈ 23 µM) | 8 µg/mL (≈ 23 µM) | 8 µg/mL (≈ 23 µM) | 0.5 µg/mL (≈ 1.44 µM) | 0.5 µg/mL (≈ 1.44 µM) | 4 µg/mL (≈ 11.5 µM) | 0.5 µg/mL (≈ 1.44 µM) |  | 
CCn1cc(C(=O)O)c(=O)c2cc(F)c(N[C@@H]3CCCC[C@H]3N)cc21 (relative stereo) [Example 8, Trans-(-)-7-[(2-Aminocyclohexyl)amino]-1-ethyl-6-fluoro-1,4-dihydro-4-oxo-3-quinolinecarboxylic acid] | > 128 µg/mL | 32 µg/mL (≈ 92.1 µM) | 32 µg/mL (≈ 92.1 µM) | 128 µg/mL (≈ 368 µM) | 32 µg/mL (≈ 92.1 µM) | 128 µg/mL (≈ 368 µM) | 128 µg/mL (≈ 368 µM) | > 128 µg/mL | 128 µg/mL (≈ 368 µM) | 64 µg/mL (≈ 184 µM) | 16 µg/mL (≈ 46.1 µM) | 32 µg/mL (≈ 92.1 µM) | 128 µg/mL (≈ 368 µM) |  | 16.00 µg/mL (≈ 46.1 µM) | 

The next lines start with results.

MIC [1, 14] | MIC ([2]; K8418, 18 h, read-out: MIC) | MIC (Excherichia coli LL 311; 18 h, read-out: MIC) | MIC [3, 15] | MIC [4, 16] | MIC ([5]; VGH8445, 18 h, read-out: MIC) | MIC [6, 17] | MIC [7, 18] | MIC [8, 19] | MIC [9, 20] | MIC ([10]; 18 h, read-out: MIC) | MIC ([11]; CMC8437, 18 h, read-out: MIC) | MIC ([12]; VGH8430, 18 h, read-out: MIC) | MIC [13, 21] | MIC [13] | SMILES | further results
 |  |  |  |  |  |  |  |  |  |  |  |  |  | 128.00 µg/mL (≈ 368 µM) | CCn1cc(C(=O)O)c(=O)c2cc(F)c(N[C@@H]3CCCC[C@H]3N)cc21 (relative stereo) [Example 9, Trans-(+)-7-[(2-Aminocyclohexyl)amino]-1-ethyl-6-fluoro-1,4-dihydro-4-oxo-3-quinolinecarboxylic acid] | MIC [1]: 128.00 µg/mL (≈ 368 µM); MIC [2]: 32.00 µg/mL (≈ 92.1 µM); MIC (Excherichia coli LL 311): 32.00 µg/mL (≈ 92.1 µM); MIC [3]: 128.00 µg/mL (≈ 368 µM); MIC [4]: 32.00 µg/mL (≈ 92.1 µM); MIC [5]: 128.00 µg/mL (≈ 368 µM); MIC [6]: 128.00 µg/mL (≈ 368 µM); MIC [7]: 128.00 µg/mL (≈ 368 µM); MIC [8]: > 128.00 µg/mL; MIC [9]: 64.00 µg/mL (≈ 184 µM); MIC [10]: 16.00 µg/mL (≈ 46.1 µM); MIC [11]: 32.00 µg/mL (≈ 92.1 µM); MIC [12]: 128.00 µg/mL (≈ 368 µM)
128 µg/mL (≈ 354 µM) | 8 µg/mL (≈ 22.1 µM) | 4 µg/mL (≈ 11.1 µM) | 32 µg/mL (≈ 88.5 µM) | 8 µg/mL (≈ 22.1 µM) | 4 µg/mL (≈ 11.1 µM) | 32 µg/mL (≈ 88.5 µM) | 128 µg/mL (≈ 354 µM) | 8 µg/mL (≈ 22.1 µM) | 32 µg/mL (≈ 88.5 µM) | 4 µg/mL (≈ 11.1 µM) | 8 µg/mL (≈ 22.1 µM) | 32 µg/mL (≈ 88.5 µM) | 2 µg/mL (≈ 5.53 µM) |  | CCn1cc(C(=O)O)c(=O)c2cc(F)c(N[C@@H]3CCCC[C@@H]3NC)cc21 (relative stereo) [Example 10] | 
